From patent US6030823A, “D-aminoacylase” (Daicel Chemical Industries, Ltd., priority 1998, dated 2000) come the findings set out here.

Assay [1] concerns Sebekia benihana IFO14309. Put plainly: Induction of D-aminoacylase, experiment 2 (seed culture, PY liquid medium, 0.10% inducer). Conditions: 20 mM N-acetyl-D-methionine, 30° C., 10 min. The format is cell-based. The procedure:
Second, a seed culture was prepared by incubating the strain in test tubes, each containing 5.0 ml of PY liquid medium for 71 hours. Then, 0.4 ml of the seed culture was inoculated with a 2-ml Komagome pipette into test tubes, each containing 8.0 ml of PY liquid medium supplemented with 0.10% DL-glutamine, 0.10% DL-histidine, 0.10% DL-isoleucine, 0.10% DL-phenylalanine, 0.10% proline, 0.10% DL-threonine, 0.10% DL-tryptophan, or 0.10% DL-valine as inducers, and cultivated for 74 hours with shaking (experiment 2).
(§1) From the culture broth obtained in experiments 1, 2, and 3, the cells were collected by centrifugation at 8000 rpm (7000×g) for 20 min with a refrigerated centrifuge (Hitachi Koki Co., Ltd.). The collected cells were washed with 50 mM Tris-HCl buffer (pH 7.5), collected again by centrifugation using the same centrifuge, then stored at -20° C.
(§2) The stored cells were suspended in 20 ml of 50 mM Tris-HCl buffer (pH 7.5) and were disrupted by sonication at 200 W for 15 min. The lysate was centrifuged at 15,000 rpm for 30 min with the above centrifuge, and the supernatant was obtained as a crude enzyme solution.
(§3) The enzymatic reaction was performed in 1.0 ml of a reaction system containing 20 mM N-acetyl-D-methionine, 50 mM Tris-HCl buffer (pH 7.5), 1 mM CoCl2, and 100 μl of the enzyme solution at 30° C. for 20 min (experiment 1), 10 min (experiment 2), and 5 min (experiment 3). The reaction was stopped by adding a TCA solution.

The test system of assay [2] is Sebekia benihana IFO14309. Put plainly: Induction of D-aminoacylase, experiment 1 (PY liquid medium, 0.10% inducer). It counts as cell-based. As to conditions: 20 mM N-acetyl-D-methionine, 30° C., 20 min. On the procedure:
First, Sebekia benihana IFO14309 was cultured with shaking for 74 hours in test tubes, each containing 8.0 ml of PY liquid medium (0.2% glycerol, 2.0% yeast extract, 2.0% polypeptone, pH 7.3) supplemented with 0.10% DL-leucine, 0.10% N-acetyl-DL-leucine, 0.10% DL-methionine, 0.10% N-acetyl-DL-methionine, DL-valine, or 0.10% N-acetyl-DL-valine as inducers (experiment 1).
as §1, §2, §3

Assay [3] deals with D-aminoacylase derived from Sebekia benihana IFO14309. Kind of assay: Influences of inhibitors on the activity of the enzyme. The format is biochemical. On the procedure: (§4) The enzymatic reaction was performed in the same manner as in (1) except that the metal salts and enzyme inhibitors listed in Tables 10 and 11 (1 mM or 10 mM) were added to the reaction mixture.
The test system is the same in assay [4]. It counts as biochemical. On the procedure: as §4
For assay [5], the system named is Sebekia benihana IFO14309. Kind of assay: Induction of D-aminoacylase, experiment 3 (seed culture, 231 liquid medium, 0.05% inducer). It counts as cell-based. As to conditions: for Activity / Specific activity: experiment 3, 20 mM N-acetyl-D-methionine, 30° C., 5 min; for Induction of the enzyme (in words): used as inducers (Table 3). On the procedure:
Third, a seed culture was prepared by incubating the strain in test tubes, each containing 5.0 ml of PY liquid medium for 51 hours with shaking. The seed culture (0.4 ml) was then inoculated with a 2-ml Komagome pipette into test tubes, each containing 8.0 ml of 231 liquid medium (1.0% maltose; 0.2% N.Z.Amine, Type A; 0.1% yeast extract; 0.1% meat extract; pH 7.3) supplemented with 0.05% D-phenylalanine, 0.05% D-tryptophan, 0.05% D-valine, 0.05% L-phenylalanine, 0.05% L-tryptophan, or 0.05% L-valine as inducers, and cultivated for 48 hours with shaking (experiment 3).
as §1, §2, §3

Setting [6] is: column 1 mM, PCMB was used at 0.01 mM.
Setting [7] is: column 10 mM, PCMB was used at 0.1 mM.

Values joined by “and” are separate entries in the source; they are usually repeats but may differ in a detail not shown here. Equal entries are not always repeated. Where two headings read alike, the source gives them in different places.

For `NC(Cc1c[nH]cn1)C(=O)O` (racemic) [DL-His, DL-histidine], in assay [1], the Activity is listed as 0.0144 U/ml of broth and the Specific activity turned out to be 0.0064 U/mg.

Regarding `CC[C@H](C)[C@H](N)C(=O)O` (racemic) [DL-Ile, DL-isoleucine], in assay [1], the Activity is given as 0.214 U/ml of broth and the Specific activity was found to be 0.0799 U/mg.

`CC(C)CC(N)C(=O)O` (racemic) [DL-Leucine, DL-leucine]: in assay [2], the Activity is on record as 0.315 U/ml of broth and the Specific activity worked out at 0.0967 U/mg.

Turning to `CSCCC(N)C(=O)O` (racemic) [DL-Methionine, DL-methionine], in assay [2], the Activity is 0.177 U/ml of broth and the Specific activity is on record as 0.0475 U/mg.

Regarding `NC(Cc1ccccc1)C(=O)O` (racemic) [DL-Phe, DL-phenylalanine], in assay [1], the Activity is reported as 0.190 U/ml of broth and the Specific activity came out at 0.0701 U/mg.

Consider `O=C(O)[C@@H]1CCCN1` (racemic) [DL-Pro, proline], for which, in assay [1], the Activity is recorded as 0.00867 U/ml of broth and the Specific activity was 0.00286 U/mg.

`C[C@@H](O)[C@H](N)C(=O)O` (racemic) [DL-Thr, DL-threonine]: in assay [1], the Activity is 0.0163 U/ml of broth and the Specific activity is 0.00587 U/mg.

With `NC(Cc1c[nH]c2ccccc12)C(=O)O` (racemic) [DL-Trp, DL-tryptophan], in assay [1], the Activity is reported as 0.312 U/ml of broth and the Specific activity turned out to be 0.119 U/mg.

Take `CC(=O)NC(CC(C)C)C(=O)O` (racemic) [N-Ac-DL-Leucine, N-acetyl-DL-leucine]: in assay [2], the Activity is given as 0.158 U/ml of broth and the Specific activity is recorded as 0.0545 U/mg.

On to `CSCCC(NC(C)=O)C(=O)O` (racemic) [N-Ac-DL-Methionine, N-acetyl-DL-methionine], for which, in assay [2], the Activity is on record as 0.0713 U/ml of broth and the Specific activity is 0.0186 U/mg.

On to `c1ccc(-c2ccccn2)nc1` [2,2'-Bipyridyl], for which, in assay [3] (inhibitor 1 mM), the D-Met came to 1.6 mM and the Residual activity was determined as 100%. Besides, in assay [3] (inhibitor 10 mM), the D-Met is given as 1.4 mM and the Residual activity was found to be 88%.

For `[Ba+2].[Cl-].[Cl-]` [BaCl2], in assay [4] (metal salt 1 mM), the D-Met came out at 1.2 mM and the Residual activity was determined as 100%. Moreover, in assay [4] (metal salt 10 mM), the D-Met was 1.1 mM and the Residual activity stood at 92%.

Take `[Ca+2].[Cl-].[Cl-]` [CaCl2]: in assay [4] (metal salt 1 mM), the D-Met came out at 1.3 mM and the Residual activity is 108%. In assay [4] (metal salt 10 mM), the D-Met was determined as 1.1 mM and the Residual activity was 92%.

For the molecule `[Cl-].[Cl-].[Co+2]` [CoCl2], the “Effect of metal ions on the enzyme (in words)” value (shortened to “Effect of metal ions”) in assay [4] is reported as “inhibited”. The values for the D-Met in assay [4] (metal salt 1 mM) and in assay [4] (metal salt 10 mM) were 0.65 mM and 0.11 mM, respectively. The figures for the Residual activity in assay [4] (metal salt 1 mM) and in assay [4] (metal salt 10 mM) were 54% and 9.2%, respectively.

As to `[Cl][Cu][Cl]` [CuCl2], the “Effect of metal ions” value in assay [4] is reported as “inhibited”. Moreover, the D-Met was 0.13 mM in assay [4] (metal salt 1 mM) and 0 mM in assay [4] (metal salt 10 mM). In addition, the Residual activity in assay [4] (metal salt 1 mM) is on record as 11%; in assay [4] (metal salt 10 mM) it was 0%.

For `N[C@H](Cc1ccccc1)C(=O)O` [D-Phe, D-phenylalanine], in assay [5], the Activity was 0.479 U/ml of broth, the Specific activity worked out at 0.303 U/mg and the “Induction of the enzyme (in words)” value is listed as “induced well”.

For the molecule `N[C@H](Cc1c[nH]c2ccccc12)C(=O)O` [D-Trp, D-tryptophan], in assay [5], the Activity was 0.913 U/ml of broth, the Specific activity stood at 0.537 U/mg and the “Induction of the enzyme (in words)” value is on record as “induced well”.

As for `CC(C)[C@@H](N)C(=O)O` [D-Val, D-valine], in assay [5], the Activity is given as 1.27 U/ml of broth, the Specific activity is 0.780 U/mg and the “Induction of the enzyme (in words)” value is listed as “induced well”.

In the case of `OC(CS)C(O)CS` (stereo not drawn) [DTT], the D-Met was found to be 0.13 mM in assay [3] (inhibitor 1 mM) and 0.055 mM in assay [3] (inhibitor 10 mM). Besides, the Residual activity in assay [3] (inhibitor 1 mM) is on record as 8.1%; in assay [3] (inhibitor 10 mM) it was 3.4%.

In the case of `O=C(O)CN(CCN(CC(=O)O)CC(=O)O)CC(=O)O` [EDTA · 2Na], in assay [4], the D-Met is 1.2 mM and 1.3 mM; the Residual activity is on record as 108%.

With `O=C(O)CN(CCN(CC(=O)O)CC(=O)O)CC(=O)O` [EDTA], in assay [3], the D-Met came out at 1.6 mM, the “Effect of inhibitors on the enzyme (in words)” value (from here on “Effect of inhibitors”) was “inhibited” and the Residual activity is reported as 100%.

With `[Cl][Fe][Cl]` [FeCl2], the “Effect of metal ions” value in assay [4] is given as “inhibited”. Moreover, the D-Met in assay [4] (metal salt 1 mM) is 0.24 mM; in assay [4] (metal salt 10 mM), 0.035 mM. Moreover, the Residual activity in assay [4] (metal salt 1 mM) is 20%; in assay [4] (metal salt 10 mM), 2.9%.

For `[Cl][Hg][Cl]` [HgCl2], the “Effect of metal ions” value in assay [4] is “inhibited”. Moreover, in assay [4] (metal salt 1 mM), the D-Met was 0.38 mM and the Residual activity came out at 32%. Moreover, in assay [4] (metal salt 10 mM), the D-Met was 0 mM and the Residual activity came out at 0%.

Consider `O=C(O)CI` [ICH2 COOH, iodoacetic acid], for which, in assay [3], the “Effect of inhibitors” value was “inhibited”.

Turning to `[Cl-].[K+]` [KCl], in assay [4] (metal salt 1 mM), the D-Met turned out to be 1.2 mM and the Residual activity is recorded as 100%. Also, in assay [4] (metal salt 10 mM), the D-Met is 1.1 mM and the Residual activity is listed as 92%.

Turning to `N[C@@H](Cc1ccccc1)C(=O)O` [L-Phe, L-phenylalanine], in assay [5], the Activity was 0.00973 U/ml of broth and the Specific activity stood at 0.0064 U/mg.

`N[C@@H](Cc1c[nH]c2ccccc12)C(=O)O` [L-Trp, L-tryptophan]: in assay [5], the Activity is recorded as 0.0243 U/ml of broth and the Specific activity was found to be 0.0134 U/mg.

Take `CC(C)[C@H](N)C(=O)O` [L-Val, L-valine]: in assay [5], the Activity is 0.0265 U/ml of broth and the Specific activity is 0.0161 U/mg.

Take `[Cl-].[Cl-].[Mg+2]` [MgCl2]: in assay [4] (metal salt 1 mM), the D-Met was 1.3 mM and the Residual activity was determined as 108%. In assay [4] (metal salt 10 mM), the D-Met is 1.2 mM and the Residual activity was determined as 100%.

Take `[Cl][Mn][Cl]` [MnCl2]: in assay [4] (metal salt 1 mM), the D-Met is 1.3 mM and the Residual activity is 108%. Moreover, in assay [4] (metal salt 10 mM), the D-Met is listed as 0.73 mM and the Residual activity is reported as 61%.

`CCN1C(=O)C=CC1=O` [N-ethyl-maleimide]: in assay [3] (inhibitor 1 mM), the D-Met was 1.7 mM and the Residual activity turned out to be 106%. For the same molecule, in assay [3] (inhibitor 10 mM), the D-Met was determined as 1.1 mM and the Residual activity was found to be 69%.

`[Cl-].[Na+]` [NaCl]: in assay [4], the D-Met was 1.3 mM and 1.1 mM; the Residual activity was 108% and 92%.

Take `[F-].[Na+]` [NaF]: the D-Met was 1.6 mM in assay [3] (inhibitor 1 mM) and 1.4 mM in assay [3] (inhibitor 10 mM). Further, the results for the Residual activity in assay [3] (inhibitor 1 mM) and in assay [3] (inhibitor 10 mM) were 100% and 88%, respectively.

Consider `[Cl][Ni][Cl]` [NiCl2], for which the “Effect of metal ions” value in assay [4] is “inhibited”. Moreover, in assay [4] (metal salt 1 mM), the D-Met is listed as 0.53 mM and the Residual activity is listed as 44%. Further, in assay [4] (metal salt 10 mM), the D-Met was 0.035 mM and the Residual activity is listed as 2.9%.

Take `O=C(O)c1cc[c]([Hg][Cl])cc1` [PCMB, p-chloromercuribenzoic acid]: the “Effect of inhibitors” value in assay [3] was “inhibited”. Besides, in assay [3] (setting [6]), the D-Met is 1.8 mM and the Residual activity worked out at 112%. Moreover, in assay [3] (setting [7]), the D-Met stood at 1.6 mM and the Residual activity came out at 100%.

Regarding `[Cl-].[Cl-].[Zn+2]` [ZnCl2], in assay [4], the “Effect of metal ions” value is recorded as “inhibited”. For the same molecule, in assay [4] (metal salt 1 mM), the D-Met is 0.50 mM and the Residual activity amounted to 42%. Besides, in assay [4] (metal salt 10 mM), the D-Met is recorded as 0 mM and the Residual activity was determined as 0%.
